From patent US7935674B2, “Indole derivatives” (Mitsubishi Tanabe Pharma Corporation, priority 2005, dated 2011)
Read-outs that look alike come from different tables or passages of the source.

How the values were obtained:
Sprague-Dawley (SD) rats = assay: Urinary glucose excretion test in rats; format: in vivo, rat; conditions: male SD rats; 30 mg/kg by oral gavage; urine collected for 24 hours; daily amount of glucose excreted in urine per individual
Description: 2. Urinary Glucose Excretion Test in Rats Test Compounds:
Compounds described in the above examples were used for the Urinary glucose excretion test in rats.
6-week-old male Sprague-Dawley (SD) rats were housed in individual metabolic cages with free access to food and water from 2 days prior to the experiment. On the morning of the experiment, rats were administered vehicle (0.2% carboxymethyl cellulose solution containing 0.2% Tween80) or test compounds (30 mg/kg) by oral gavage at a volume of 10 ml/kg. Then, urine of the rat was collected for 24 hours, and the urine volume was measured. Subsequently, the glucose concentration in urine was quantified using the enzymatic assay kit and the daily amount of glucose excreted in urine per individual was calculated.

human SGLT2 = biological target: T1, human SGLT2 (Homo sapiens, UniProt P31639); assay: Assay for SGLT2 inhibition (14C-AMG uptake in CHOK1 cells expressing human SGLT2); format: cell-based
T1 construct: expressed in transfected cells; host or cells: CHOK1 (Chinese hamster ovary) cells, kept under Geneticin selection
T1 sequence (P31639 1-672): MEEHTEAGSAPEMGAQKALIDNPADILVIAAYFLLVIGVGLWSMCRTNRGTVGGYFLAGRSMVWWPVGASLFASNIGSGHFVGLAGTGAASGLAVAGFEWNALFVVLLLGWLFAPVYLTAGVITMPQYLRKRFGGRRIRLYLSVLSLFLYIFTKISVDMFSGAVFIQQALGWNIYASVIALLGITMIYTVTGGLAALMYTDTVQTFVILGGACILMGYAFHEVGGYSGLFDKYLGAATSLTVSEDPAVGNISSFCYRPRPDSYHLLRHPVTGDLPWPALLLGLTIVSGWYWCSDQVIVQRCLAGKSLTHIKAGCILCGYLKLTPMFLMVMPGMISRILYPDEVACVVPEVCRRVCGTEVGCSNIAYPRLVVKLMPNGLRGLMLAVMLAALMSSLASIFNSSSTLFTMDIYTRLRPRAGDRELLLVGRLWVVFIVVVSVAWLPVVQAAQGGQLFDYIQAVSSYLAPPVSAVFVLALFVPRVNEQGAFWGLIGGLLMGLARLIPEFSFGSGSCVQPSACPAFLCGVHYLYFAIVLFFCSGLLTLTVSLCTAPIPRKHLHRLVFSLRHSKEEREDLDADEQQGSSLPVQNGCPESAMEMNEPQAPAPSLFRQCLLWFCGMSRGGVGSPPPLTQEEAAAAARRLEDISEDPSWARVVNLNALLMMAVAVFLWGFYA
Description: 1. Assay for SGLT2 Inhibition
Compounds described in the above examples were used for the SGLT2 inhibition assay.
CHOK1 cells expressing human SGLT2 were seeded in 24-well plates at a density of 400,000 cells/well in F-12 nutrient mixture (Ham's F-12) containing 10% fetal bovine serum, 400 μg/ml Geneticin, 50 units/ml sodium penicillin G (Gibco-BRL) and 50 μg/ml streptomycin sulfate. After 2 days of culture at 37° C. in a humidified atmosphere containing 5% CO2, cells were washed once with the assay buffer (137 mM NaCl, 5 mM KCl, 1 mM CaCl2, 1 mM MgCl2, 50 mM Hepes, and 20 mM Tris, pH 7.4) and incubated with 250 μl of the buffer containing test compounds for 10 min at 37° C. Test compounds were dissolved in DMSO. The final concentration of DMSO was 0.5%. The transport reaction was initiated by addition of 50 μl [^14C]-methyl-α-D-glucopyranoside (^14C-AMG) solution (final concentration, 0.5 mM). After incubation for 2 hours at 37° C., the uptake was stopped by aspiration of the incubation mixture, the cells were washed three times with ice-cold PBS. Then, cells were solubilized with 0.3 N NaOH and aliquots were taken for determination of radioactivity by a liquid scintillation counter. Nonspecific AMG uptake was defined as that which occurred in the presence of 100 μM of phlorizin, a specific inhibitor of sodium-dependent glucose cotransporter. Specific uptake was normalized for the protein concentrations measured by the method of Bradford. The 50% inhibitory concentration (IC50) values were calculated from dose-response curves by least square method.

[1] = CHOK1 cells expressing human SGLT2, 14C-AMG uptake, 0.5 mM, 2 hours at 37° C., read-out: IC50

SMILES | Urinary glucose (Sprague-Dawley (SD) rats) | IC50 (human SGLT2; [1]) [nM] | IC50 (human SGLT2) [nM]
OC[C@H]1O[C@@H](n2cc(Cc3ccc(O)cc3)c3c(Cl)cccc32)[C@H](O)[C@@H](O)[C@@H]1O [Example 46, 4-Chloro-3-(4-hydroxyphenylmethyl)-1-(β-D-glucopyranosyl)-indole] | A (A≧2400 mg) | 2.4 | 
OC[C@H]1O[C@@H](n2cc(Cc3ccc(Br)s3)c3c(Cl)cccc32)[C@H](O)[C@@H](O)[C@@H]1O [Example 7, 3-(5-Bromo-2-thienylmethyl)-4-chloro-1-(β-D-glucopyranosyl)-indole] | B (2400 mg>B≧2000 mg) | 5 | 
OC[C@H]1O[C@@H](n2cc(Cc3ccc(Cl)cc3)c3c(Br)cccc32)[C@H](O)[C@@H](O)[C@@H]1O [Example 44, 4-Bromo-3-(4-chlorophenylmethyl)-1-(β-D-glucopyranosyl)indole] | B (2400 mg>B≧2000 mg) | 20 | 
OC[C@H]1O[C@@H](n2cc(Cc3ccc(Cl)cc3)c3c(Cl)cccc32)[C@H](O)[C@@H](O)[C@@H]1O [Example 6, 4-Chloro-3-(4-chlorophenylmethyl)-1-(β-D-glucopyranosyl)-indole] | A (A≧2400 mg) | 9.8 | 
OC[C@H]1O[C@@H](n2cc(Cc3ccc(OC(F)(F)F)cc3)c3c(Cl)cccc32)[C@H](O)[C@@H](O)[C@@H]1O [Example 29, 4-Chloro-3-(4-(trifluoromethoxy)phenylmethyl)-1-(β-D-gluco-pyranosyl)indole] | B (2400 mg>B≧2000 mg) | 9.6 | 
CCOc1ccc(Cc2cn([C@@H]3O[C@H](CO)[C@@H](O)[C@H](O)[C@H]3O)c3cc(Cl)cc(Cl)c23)cc1 [Example 28, 4,6-Dichloro-3-(4-ethoxyphenylmethyl)-1-(β-D-glucopyranosyl)-indole] | B (2400 mg>B≧2000 mg) | 3.2 | 
OC[C@H]1O[C@@H](n2cc(Cc3ccc(I)cc3)c3c(Cl)cc(Cl)cc32)[C@H](O)[C@@H](O)[C@@H]1O [Example 36, 4,6-Dichloro-3-(4-iodophenylmethyl)-1-(β-D-glucopyranosyl)-indole] | B (2400 mg>B≧2000 mg) | 14 | 
OC[C@H]1O[C@@H](n2cc(Cc3ccc(Br)cc3)c3c(Cl)cccc32)[C@H](O)[C@@H](O)[C@@H]1O [Example 14, 3-(4-Bromophenylmethyl)-4-chloro-1-(β-D-glucopyranosyl)-indole] | A (A≧2400 mg) | 8.1 | 
CCc1ccc(Cc2cn([C@@H]3O[C@H](CO)[C@@H](O)[C@H](O)[C@H]3O)c3cccc(F)c23)s1 [Example 18, 3-(5-Ethylthiophen-2-yl-methyl)-4-fluoro-1-(β-D-gluco-pyranosyl)indole] | B (2400 mg>B≧2000 mg) | 4.1 | 
Cc1cccc2c1c(Cc1ccc(C3CC3)cc1)cn2[C@@H]1O[C@H](CO)[C@@H](O)[C@H](O)[C@H]1O [Example 47, 3-(4-Cyclopropylphenylmethyl)-4-methyl-1-(β-D-gluco-pyranosyl)indole] | A (A≧2400 mg) |  | 1.6
OC[C@H]1O[C@@H](n2cc(Cc3ccc(C(F)F)cc3)c3c(F)cccc32)[C@H](O)[C@@H](O)[C@@H]1O [Example 25, 3-(4-(Difluoromethyl)phenylmethyl)-4-fluoro-1-(β-D-gluco-pyranosyl)indole] | B (2400 mg>B≧2000 mg) | 11 | 
CSc1ccc(Cc2cn([C@@H]3O[C@H](CO)[C@@H](O)[C@H](O)[C@H]3O)c3cccc(F)c23)cc1 [Example 10, 4-Fluoro-3-(4-(methylthio)phenylmethyl)-1-(β-D-gluco-pyranosyl)indole] |  | 2.4 | 
CCc1ccc(Cc2cn([C@@H]3O[C@H](CO)[C@@H](O)[C@H](O)[C@H]3O)c3cccc(Cl)c23)cc1 [Example 1, 4-Chloro-3-(4-ethylphenylmethyl)-1-(β-D-glucopyranosyl)-indole] |  | 2.9 | 
CCc1ccc(Cc2cn([C@@H]3O[C@H](CO)[C@@H](O)[C@H](O)[C@H]3O)c3cccc(Cl)c23)s1 [Example 16, 4-Chloro-3-(5-ethylthiophen-2-yl-methyl)-1-(β-D-gluco-pyranosyl)indole] |  | 2.1 | 
